Values after ≈ are worked out from the molar mass of the structure shown.
Assays:
[1] = target: human soluble guanylate cyclase alpha 1 and beta 1 subunits (sGC) (Homo sapiens (Human), UniProt Q02108+Q02153); test: sGC cellular activator assay (cGMP, HTRF), in the presence and absence of 50% human serum; format: cell-based; conditions: CHO cells stably expressing human sGC alpha 1/beta 1, preincubated with 40 microM ODQ; cGMP by HTRF; Table 2 does not state whether with or without 50% human serum
human soluble guanylate cyclase alpha 1 and beta 1 subunits (sGC), sequence (Q02108 whole entry partner): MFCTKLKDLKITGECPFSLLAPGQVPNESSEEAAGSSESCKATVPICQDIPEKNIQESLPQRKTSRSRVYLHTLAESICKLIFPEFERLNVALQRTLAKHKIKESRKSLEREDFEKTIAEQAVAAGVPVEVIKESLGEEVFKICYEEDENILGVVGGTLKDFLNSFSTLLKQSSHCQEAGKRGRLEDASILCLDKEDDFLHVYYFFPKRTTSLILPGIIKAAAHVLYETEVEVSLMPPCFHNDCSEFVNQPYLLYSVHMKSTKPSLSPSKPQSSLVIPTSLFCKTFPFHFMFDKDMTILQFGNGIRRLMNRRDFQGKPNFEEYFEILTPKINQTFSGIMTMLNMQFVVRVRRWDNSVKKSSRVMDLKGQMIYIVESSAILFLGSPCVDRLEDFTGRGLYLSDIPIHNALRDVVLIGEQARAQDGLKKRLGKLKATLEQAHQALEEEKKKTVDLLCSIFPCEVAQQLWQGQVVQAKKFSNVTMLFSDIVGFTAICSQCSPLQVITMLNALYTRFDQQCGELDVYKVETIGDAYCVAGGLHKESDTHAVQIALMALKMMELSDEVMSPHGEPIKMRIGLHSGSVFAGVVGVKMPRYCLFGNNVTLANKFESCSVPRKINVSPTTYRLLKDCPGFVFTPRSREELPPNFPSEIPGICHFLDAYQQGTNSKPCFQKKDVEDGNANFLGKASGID
human soluble guanylate cyclase alpha 1 and beta 1 subunits (sGC), sequence (Q02153 whole entry): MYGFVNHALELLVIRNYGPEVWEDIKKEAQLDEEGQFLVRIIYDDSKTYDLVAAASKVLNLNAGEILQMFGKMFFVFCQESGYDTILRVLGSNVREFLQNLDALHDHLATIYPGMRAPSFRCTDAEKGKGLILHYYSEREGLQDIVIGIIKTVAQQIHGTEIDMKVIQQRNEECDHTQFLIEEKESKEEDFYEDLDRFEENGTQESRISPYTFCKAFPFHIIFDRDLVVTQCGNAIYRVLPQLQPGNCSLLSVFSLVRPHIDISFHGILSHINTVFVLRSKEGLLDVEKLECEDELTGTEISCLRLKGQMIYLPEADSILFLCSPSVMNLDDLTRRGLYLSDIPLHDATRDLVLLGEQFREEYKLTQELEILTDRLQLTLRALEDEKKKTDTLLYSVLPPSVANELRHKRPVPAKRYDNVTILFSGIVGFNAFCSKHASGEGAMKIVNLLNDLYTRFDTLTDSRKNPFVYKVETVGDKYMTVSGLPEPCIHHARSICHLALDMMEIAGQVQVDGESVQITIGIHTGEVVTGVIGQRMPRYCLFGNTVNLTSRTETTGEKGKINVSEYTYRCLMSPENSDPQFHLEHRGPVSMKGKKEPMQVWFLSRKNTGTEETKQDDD
Procedure, shortened: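 Heme-oxidized conditions: ODQ (40 microM, 1 h) pretreatment of CHO cells stably expressing human α1/β1 sGC, in buffer containing 0.1% BSA and IBMX.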

[2] = physchem; conditions: kinetic from dmso stock
[3] = Human liver microsome (HLM) metabolic stability assay; format: in vitro ADME; conditions: human liver microsomes
Procedure, shortened: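 Compound at 1 uM incubated with human liver microsomes at 37° C. for 60 min after NADPH addition. Aliquots quenched in cold acetonitrile at 0, 5, 15, 30 and 60 min and analysed by LC/MS/MS. t1/2 from ln(% remaining) vs time slope; CLint, CLh and % Qh derived from it (n=1).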

[4] = pH 2.2, aqueous buffer, Solubility (pH 2.2)
[5] = pH 4.5, aqueous buffer, Solubility (pH 4.5)
[6] = pH 6.8, aqueous buffer, Solubility (pH 6.8)

| EC50 [1] [nM] | solubility at 24 h [2, 4] [µg/mL] | solubility at 24 h [2, 5] [µg/mL] | solubility at 24 h [2, 6] [µg/mL] | Metabolic stability (Qh %), % hepatic blood flow [3] [%] | Compound |
| --- | --- | --- | --- | --- | --- |
| 67 | 93 (≈ 175 µM) | 8.4 (≈ 15.8 µM) | 1.1 (≈ 2.07 µM) | <24 | Cc1ccc(OCc2ccc3c(c2)CCN(C2COC2)CC3)c(-c2csc(N3C[C@@H]4C[C@]4(C(=O)O)C3)n2)c1 [Compound 148] |
| 34 | 98 (≈ 180 µM) | 37 (≈ 67.8 µM) | 35 (≈ 64.1 µM) | <24 | Cc1ccc(OCc2ccc3c(c2C)CCN(C2COC2)CC3)c(-c2csc(N3C[C@@H]4C[C@]4(C(=O)O)C3)n2)c1 [Compound 149] |
| 24 | 100 (≈ 174 µM) | 44 (≈ 76.7 µM) | 9.7 (≈ 16.9 µM) | <24 | Cc1ccc(OCc2ccc3c(c2C)CCN(C2CCOCC2)CC3)c(-c2csc(N3C[C@@H]4C[C@]4(C(=O)O)C3)n2)c1 [Compound 150] |
| 135 | 110 (≈ 197 µM) | 71 (≈ 127 µM) | 54 (≈ 96.5 µM) | <24 | Cc1cc(C)c(OCc2ccc3c(c2)CCN(C2CCOCC2)C3)c(-c2csc(N3C[C@@H]4C[C@]4(C(=O)O)C3)n2)c1 [Compound 151] |
| 71 | 110 (≈ 192 µM) | 70 (≈ 122 µM) | 53 (≈ 92.4 µM) | <24 | Cc1cc(C)c(OCc2ccc3c(c2C)CCN(C2CCOCC2)C3)c(-c2csc(N3C[C@@H]4C[C@]4(C(=O)O)C3)n2)c1 [Compound 152] |
| 14 | 120 (≈ 214 µM) | 72 (≈ 129 µM) | 47 (≈ 84 µM) | <24 | Cc1ccc(OCc2ccc3c(c2)CCN(C2CCOCC2)C3)c(-c2csc(N3C[C@@H]4C[C@]4(C(=O)O)[C@H]3C)n2)c1 [Compound 153] |
| 4 | 110 (≈ 192 µM) | 65 (≈ 113 µM) | 25 (≈ 43.6 µM) | <24 | Cc1ccc(OCc2ccc3c(c2C)CCN(C2CCOCC2)C3)c(-c2csc(N3C[C@@H]4C[C@]4(C(=O)O)[C@H]3C)n2)c1 [Compound 154] |
| 46 | 96 (≈ 167 µM) | 69 (≈ 120 µM) | 61 (≈ 106 µM) | <24 | Cc1cccc(-c2csc(N3C[C@H]4C[C@@]4(C(=O)O)[C@@H]3C)n2)c1OCc1ccc2c(c1C)CCN(C1CCOCC1)C2 [Compound 155] |
| 387 | > 140 | 0.5 (≈ 0.916 µM) | 8.9 (≈ 16.3 µM) | <24 | Cc1cccc(-c2csc(N3C[C@H]4C[C@@]4(C(=O)O)[C@@H]3C)n2)c1OCc1ccc2c(c1C)CCN(C1COC1)C2 [Compound 156] |
| 28 | 97 (≈ 169 µM) | 72 (≈ 125 µM) | 63 (≈ 110 µM) | <24 | Cc1cc(COc2c(C)cccc2-c2csc(N3C[C@H]4C[C@@]4(C(=O)O)[C@@H]3C)n2)cc2c1CN(C1CCOCC1)CC2 [Compound 157] |
| 37 | 94 (≈ 172 µM) | 53 (≈ 97.1 µM) | 65 (≈ 119 µM) | <24 | Cc1cc(COc2c(C)cccc2-c2csc(N3C[C@H]4C[C@@]4(C(=O)O)[C@@H]3C)n2)cc2c1CN(C1COC1)CC2 [Compound 158] |
| 44 | 120 (≈ 199 µM) | 95 (≈ 157 µM) | 89 (≈ 147 µM) | 30 | COC[C@H]1N(c2nc(-c3cccc(C)c3OCc3ccc4c(c3C)CCN(C3CCOCC3)C4)cs2)C[C@@H]2C[C@@]21C(=O)O [Compound 159] |
| 105 | 120 (≈ 209 µM) | < 0.1 | 75 (≈ 131 µM) | 38 | COC[C@H]1N(c2nc(-c3cccc(C)c3OCc3ccc4c(c3C)CCN(C3CCC3)C4)cs2)C[C@@H]2C[C@@]21C(=O)O [Compound 160] |
| 7 | 110 (≈ 191 µM) | 62 (≈ 108 µM) | 76 (≈ 132 µM) | <24 | COC[C@H]1N(c2nc(-c3cccc(C)c3OCc3cc(C)c4c(c3)CCN(C3COC3)C4)cs2)C[C@@H]2C[C@@]21C(=O)O [Compound 161] |
| 4 | 120 (≈ 199 µM) | 82 (≈ 136 µM) | 75 (≈ 124 µM) | 39 | COC[C@H]1N(c2nc(-c3cccc(C)c3OCc3cc(C)c4c(c3)CCN(C3CCOCC3)C4)cs2)C[C@@H]2C[C@@]21C(=O)O [Compound 162] |
| 345 | 110 (≈ 187 µM) | 77 (≈ 131 µM) | 65 (≈ 110 µM) | <24 | COC[C@H]1N(c2nc(-c3cc(C)ccc3OCc3ccc4c(c3)CCN(C3CCOCC3)C4)cs2)C[C@@H]2C[C@@]21C(=O)O [Compound 163] |

| EC50 [1] [nM] | solubility at 24 h [2, 4] [µg/mL] | solubility at 24 h [2, 5] [µg/mL] | solubility at 24 h [2, 6] [µg/mL] | Metabolic stability (Qh %), % hepatic blood flow [3] [%] | Compound |
| --- | --- | --- | --- | --- | --- |
| 108 | 120 (≈ 199 µM) | 75 (≈ 124 µM) | 59 (≈ 97.7 µM) | <24 | COC[C@H]1N(c2nc(-c3cc(C)ccc3OCc3ccc4c(c3C)CCN(C3CCOCC3)C4)cs2)C[C@@H]2C[C@@]21C(=O)O [Compound 164] |
| 12 | 120 (≈ 203 µM) | 86 (≈ 145 µM) | 77 (≈ 130 µM) | <24 | CO[C@H]1CN(c2nc(-c3cccc(C)c3OCc3ccc4c(c3C)CCN(C3CCOCC3)C4)cs2)CC[C@H]1C(=O)O [Compound 165] |
| 17 | 110 (≈ 195 µM) | 74 (≈ 131 µM) | 82 (≈ 145 µM) | <24 | CO[C@H]1CN(c2nc(-c3cccc(C)c3OCc3ccc4c(c3C)CCN(C3COC3)C4)cs2)CC[C@H]1C(=O)O [Compound 166] |
| 10 | 110 (≈ 186 µM) | 84 (≈ 142 µM) | 82 (≈ 139 µM) | <24 | CO[C@H]1CN(c2nc(-c3cccc(C)c3OCc3cc(C)c4c(c3)CCN(C3CCOCC3)C4)cs2)CC[C@H]1C(=O)O [Compound 167] |
| 53 | 130 (≈ 214 µM) | 87 (≈ 143 µM) | 81 (≈ 133 µM) | <24 | CO[C@H]1CN(c2nc(-c3cccc(C)c3OCc3cc(C)c4c(c3)CCN(CC3COCCO3)C4)cs2)CC[C@H]1C(=O)O (some centres unmarked) [Compound 168] |
| 5 | 130 (≈ 215 µM) | 90 (≈ 149 µM) | 79 (≈ 130 µM) | <24 | CCc1cc(COc2c(C)cccc2-c2csc(N3CC[C@@H](C(=O)O)[C@@H](OC)C3)n2)cc2c1CN(C1CCOCC1)CC2 [Compound 170] |
| 10 | 140 (≈ 230 µM) | 100 (≈ 165 µM) | 99 (≈ 163 µM) | <24 | COc1cc(COc2c(C)cccc2-c2csc(N3CC[C@@H](C(=O)O)[C@@H](OC)C3)n2)cc2c1CN(C1CCOCC1)CC2 [Compound 171] |
| 7 | 130 (≈ 218 µM) | 98 (≈ 165 µM) | 85 (≈ 143 µM) | <24 | CO[C@H]1CN(c2nc(-c3cccc(C)c3OCc3cc(F)c4c(c3)CCN(C3CCOCC3)C4)cs2)CC[C@H]1C(=O)O [Compound 172] |
| 21 | 120 (≈ 203 µM) | 71 (≈ 120 µM) | 75 (≈ 127 µM) | <24 | CO[C@@H]1CN(c2nc(-c3cccc(C)c3OCc3ccc4c(c3C)CCN(C3CCOCC3)C4)cs2)CC[C@@H]1C(=O)O [Compound 173] |
| 44 | 120 (≈ 213 µM) | 79 (≈ 140 µM) | 83 (≈ 147 µM) | <24 | CO[C@@H]1CN(c2nc(-c3cccc(C)c3OCc3ccc4c(c3C)CCN(C3COC3)C4)cs2)CC[C@@H]1C(=O)O [Compound 174] |
| 155 | 140 (≈ 230 µM) | 100 (≈ 165 µM) | 95 (≈ 156 µM) | <24 | CO[C@@H]1CN(c2nc(-c3cccc(C)c3OCc3cc(C)c4c(c3)CCN(CC3COCCO3)C4)cs2)CC[C@@H]1C(=O)O (some centres unmarked) [Compound 175] |
| 47 | 140 (≈ 230 µM) | 100 (≈ 165 µM) | 96 (≈ 158 µM) | <24 | COc1cc(COc2c(C)cccc2-c2csc(N3CC[C@H](C(=O)O)[C@H](OC)C3)n2)cc2c1CN(C1CCOCC1)CC2 [Compound 177] |
| 14 | 110 (≈ 186 µM) | 72 (≈ 122 µM) | 5.1 (≈ 8.62 µM) | <24 | CO[C@H]1CN(c2nc(-c3cc(C)ccc3OCc3ccc4c(c3C)CCN(C3CCOCC3)C4)cs2)CC[C@H]1C(=O)O [Compound 178] |
| 46 | 120 (≈ 203 µM) | 4.3 (≈ 7.27 µM) | 0.73 (≈ 1.23 µM) | <24 | CO[C@H]1CN(c2nc(-c3cc(C)ccc3OCc3cc(C)c4c(c3)CCN(C3CCOCC3)C4)cs2)CC[C@H]1C(=O)O [Compound 180] |
| 23 | 120 (≈ 198 µM) | 53 (≈ 87.5 µM) | 5 (≈ 8.25 µM) | <24 | CO[C@H]1CN(c2nc(-c3cc(C)ccc3OCc3cc(C)c4c(c3C)CCN(C3CCOCC3)C4)cs2)CC[C@H]1C(=O)O [Compound 181] |

Source: patent US9353090B2, “Heterocyclic carboxylic acids as activators of soluble guanylate cyclase” (Boehringer Ingelheim International GmbH, priority 2014, dated 2016)
